Patent US20260242398A1, “BENZOPYRIMIDIN-4(3H)-ONES AS PI3K INHIBITORS” (OnKure, Inc., priority 2022, published 2026)
Read-outs that look alike come from different tables or passages of the source.

Columns and labels:
Format in all cases: cell-based
[1] = test system: T47D cells expressing mutant PI3Ka (H1047R); assay: In vitro cell proliferation (CellTiter-Glo, 72 hours), T47D cells; settings: inhibition of proliferation, read-out: Avg T-47D EC50
Procedure: (§1) In Vitro Cell Proliferation: Determination of EC50 Values for Inhibition of Proliferation in T47D Cells Expressing Mutant PI3Ka (H1047R) Mutation and SKBR3 Cells Express WT PI3Ka.
(§2) T47D or SKBR3 cells were trypsinized, resuspended in culture media and seeded onto assay ready plates. T47D culture media consisted of RPMI, 10% FBS and Insulin (0.2 units/mL). SKBR3 culture media consisted of McCoys 5a and 10% FBS. Cells were seeded at a density of 1,500 cells/well and dispensed in 50 uL onto 384 well assay ready plates (Corning, 89089-790). Assay ready plates had previously been stamped with 10-point dilutions of compounds of interest, as well as controls. The Echo655 is used to stamp plates at 40 nL of compound or DMSO. Cells were grown for 72 hours at 37° Celsius and 5% CO2. After 72 hours, cells were equilibrated at room temperature for 15 minutes. 30 uL of CellTiter-Glo reagent is added to the plate, which is then shaken for 30 minutes at temperature at 300-500 rpm. Cells are then read on an Envision plate reader. The percentage of inhibition of proliferation was calculated using the following formula: % Inhibition=100×(LumD−LumSample)/(LumD−LumInh), where D is obtained from cells treated with 0.1% DMSO only; Inh is obtained from cells treated with 10 uM Alpelisib. The effective concentration achieving 50% inhibition of proliferation (EC50) is calculated by fitting the Curve using XWfit (v5.3.1.3), equation 201: Y=Bottom+(Top−Bottom)/(1+10^((Log EC50−X)*HillSlope)).

[2] = test system: phosphorylation of AKT (pAKT) in T47D cells expressing mutant PI3Ka (H1047R); assay: In vitro cell pAKT (Ser473) HTRF, T47D cells
Procedure: (§3) In Vitro Cell pAKT: Determination of IC50 Values for Inhibition of Phosphorylation of AKT (pAKT) in T47D Cells Expressing Mutant PI3Ka (H1047R) Mutation and SKBR3 Cells Express WT PI3Ka.
(§4) T47D or SKBR3 cells were trypsinized, resuspended in culture media and seeded onto assay ready plates. T47D culture media consisted of RPMI, 10% FBS and Insulin (0.2 units/mL). SKBR3 culture media consisted of McCoy's 5a and 10% FBS. Cells were seeded at a density of 5000 cells/well and dispensed in 12.5 uL onto 384 well assay ready plates (Perkin Elmer, 6008238)). Assay ready plates had previously been stamped with 10-point dilutions of compounds of interest, as well as controls. The Echo655 is used to stamp plates at 12.5 nL of compound or DMSO. Cells were grown for 6 hour at 37° Celsius and 5% CO2. After 6 hour, 4 uL of Lysis buffer reagent was added to the plate, which was then centrifuged for 1 minute at 1000 rpm. Then the plate was incubated at room temperature for 30 minutes. After 30 minutes, 4 uL of antibody mix containing Eu Cryptate, d2 Cryptate, and detection buffer, was added to the plate. The plate was centrifuged for 1 minute at 1000 rpm and then incubated overnight at room temperature. The plate was read on an Envision plate reader using the HTRF protocol. The percentage of inhibition of AKT phosphorylation was calculated using the following formula: % Inhibition=100×(pAKTHC−pAKTSample)/(pAKTHC−pAKTLC)), where pAKTHC is obtained from cells treated with 0.1% DMSO only; pAKTLC is obtained from cells treated with 10 uM Alpelisib. The IC50 (concentration achieving 50% inhibition of pAKT) is calculated by fitting the Curve using XWfit (v5.3.1.3), equation 201: Y=Bottom+(Top−Bottom)/(1+10^((Log IC50−X)*HillSlope)).

[3] = test system: SKBR3 cells express WT PI3Ka; assay: In vitro cell proliferation (CellTiter-Glo, 72 hours), SKBR3 cells; settings: inhibition of proliferation
Procedure: as §1, §2

[4] = test system: phosphorylation of AKT (pAKT) in SKBR3 cells express WT PI3Ka; assay: In vitro cell pAKT (Ser473) HTRF, SKBR3 cells; settings: inhibition of pAKT
Procedure: as §3, §4

[5] = inhibition of pAKT, 6 hour, read-out: Avg T-47D IC50

## CC(Nc1ccc(F)cc1C(=O)O)c1cc(F)cc2c(=O)n(C)c(N3CCN(CC(F)(F)F)CC3)nc12 (single isomer, unassigned) [Example 33, 5-fluoro-2-((1-(6-fluoro-3-methyl-4-oxo-2-(4-(2,2,2-trifluoroethyl)piperazin-1-yl)-3,4-dihydroquinazolin-8-yl)ethyl)amino)benzoic acid]
[1]
  EC50: 0.001 to 0.5 µM
[2]; [5]
  IC50: 0.001 to 1 µM
[3]; Homo sapiens, SK-BR-3, 72 h
  EC50: > 15 µM
[4]; 6 hour
  IC50: > 15 µM

## Cc1cc(C(C)Nc2ccccc2C(=O)O)c2nc(NCc3ccc(Cl)cc3)n(C)c(=O)c2c1 (single isomer, unassigned) [Example 43, 2-((1-(2-((4-chlorobenzyl)amino)-3,6-dimethyl-4-oxo-3,4-dihydroquinazolin-8-yl)ethyl)amino)benzoic acid]
[1]; Homo sapiens, T47D, 72 h
  EC50: 2 to 15 µM
[2]; [5]
  IC50: 5 to 15 µM
[3]; Homo sapiens, SK-BR-3, 72 h
  EC50: > 15 µM
[4]; Homo sapiens, SK-BR-3, 6 h
  IC50: > 15 µM

## COc1ccc2c(c1)CN(c1nc3c(C(C)Nc4ccccc4C(=O)O)cc(C)cc3c(=O)n1C)C2 (single isomer, unassigned) [Example 8, 2-((1-(2-(5-methoxyisoindolin-2-yl)-3,6-dimethyl-4-oxo-3,4-dihydroquinazolin-8-yl)ethyl)amino)benzoic acid]
[1]
  EC50: > 15 µM
[2]; [5]
  IC50: > 15 µM
[3]
  EC50: > 15 µM
[4]; 6 hour
  IC50: > 15 µM

## CC(Nc1ccccc1C(=O)O)c1cc(Cl)cc2c(=O)n(C)c(N3CCC(C)(C)CC3)nc12 (single isomer, unassigned) [Example 23, 2-((1-(6-chloro-2-(4,4-dimethylpiperidin-1-yl)-3-methyl-4-oxo-3,4-dihydroquinazolin-8-yl)ethyl)amino)benzoic acid]
[1]
  EC50: 2 to 15 µM
[2]; [5]
  IC50: > 15 µM
[3]
  EC50: 2 to 15 µM
[4]; 6 hour
  IC50: > 15 µM

## Cc1cc(C(C)Nc2ccccc2C(=O)O)c2nc(N3Cc4ccc(Cl)cc4C3)n(C)c(=O)c2c1 (single isomer, unassigned) [Example 10, 2-((1-(2-(5-chloroisoindolin-2-yl)-3,6-dimethyl-4-oxo-3,4-dihydroquinazolin-8-yl)ethyl)amino)benzoic acid]
[1]
  EC50: 2 to 15 µM
[2]; [5]
  IC50: > 15 µM
[3]
  EC50: 2 to 15 µM
[4]; 6 hour
  IC50: > 15 µM

## Cc1cc(C(C)Nc2ccccc2C(=O)O)c2nc(N3CC[Si](C)(C)CC3)n(C)c(=O)c2c1 (single isomer, unassigned) [Example 2, 2-((1-(2-(4,4-dimethyl-1,4-azasilinan-1-yl)-3,6-dimethyl-4-oxo-3,4-dihydroquinazolin-8-yl)ethyl)amino)benzoic acid]
[1]
  EC50: 2 to 15 µM
[2]; read-out: Avg T-47D IC50, inhibition of pAKT, 6 hour
  IC50: > 15 µM
[3]
  EC50: 2 to 15 µM
[4]; 6 hour
  IC50: > 15 µM

## Cc1cc(C(C)Nc2cccc(F)c2C(=O)O)c2nc(N3CCC(C)(C)CC3)n(C)c(=O)c2c1 (stereo not shown) [Example 28, 2-((1-(2-(4,4-dimethylpiperidin-1-yl)-3,6-dimethyl-4-oxo-3,4-dihydroquinazolin-8-yl)ethyl)amino)-6-fluorobenzoic acid]
[1]; Homo sapiens, T47D, 72 h
  EC50: 2 to 15 µM
[2]; Homo sapiens, T47D, 6 h, inhibition of pAKT, read-out: Avg T-47D IC50
  IC50: 0.001 to 1 µM
[3]; Homo sapiens, SK-BR-3, 72 h
  EC50: > 15 µM
[4]; Homo sapiens, SK-BR-3, 6 h
  IC50: > 15 µM

## COc1ccc2c(c1)CN(c1nc3c(C(C)Nc4ccccc4C(=O)O)cc(C)cc3c(=O)n1C)C2 (single isomer, unassigned) [Example 7, 2-((1-(2-(5-methoxyisoindolin-2-yl)-3,6-dimethyl-4-oxo-3,4-dihydroquinazolin-8-yl)ethyl)amino)benzoic acid]
[1]
  EC50: 0.5 to 2 µM
[2]; [5]
  IC50: 0.001 to 1 µM
[3]; Homo sapiens, SK-BR-3, 72 h
  EC50: > 15 µM
[4]; Homo sapiens, SK-BR-3, 6 h
  IC50: > 15 µM

## CC(Nc1ccc(F)cc1C(=O)O)c1cc(F)cc2c(=O)n(C)c(N3CCN(CC(F)(F)F)CC3)nc12 (single isomer, unassigned) [Example 34, 5-fluoro-2-((1-(6-fluoro-3-methyl-4-oxo-2-(4-(2,2,2-trifluoroethyl)piperazin-1-yl)-3,4-dihydroquinazolin-8-yl)ethyl)amino)benzoic acid]
[1]
  EC50: > 15 µM
[2]; [5]
  IC50: > 15 µM
[3]
  EC50: > 15 µM
[4]; 6 hour
  IC50: 5 to 15 µM

## Cc1cc(C(C)Nc2ccccc2C(=O)O)c2nc(N3CCC(C)(C)CC3)n(C3CC3)c(=O)c2c1 (single isomer, unassigned) [Example 49, 2-((1-(3-cyclopropyl-2-(4,4-dimethylpiperidin-1-yl)-6-methyl-4-oxo-3,4-dihydroquinazolin-8-yl)ethyl)amino)benzoic acid]
[1]; Homo sapiens, T47D, 72 h
  EC50: 2 to 15 µM
[2]; [5]
  IC50: 1 to 5 µM
[3]
  EC50: 2 to 15 µM
[4]; Homo sapiens, SK-BR-3, 6 h
  IC50: > 15 µM

## Cc1cc(C(C)Nc2ccccc2C(=O)O)c2nc(Nc3ccc(Cl)cc3)n(C)c(=O)c2c1 (single isomer, unassigned) [Example 42, 2-((1-(2-((4-chlorophenyl)amino)-3,6-dimethyl-4-oxo-3,4-dihydroquinazolin-8-yl)ethyl)amino)benzoic acid]
[1]
  EC50: 2 to 15 µM
[2]; [5]
  IC50: > 15 µM
[3]
  EC50: > 15 µM
[4]; 6 hour
  IC50: > 15 µM

## Cc1cc(C(C)Nc2ccccc2C(=O)O)c2nc(N3CC4(CCCCC4)C3)n(C)c(=O)c2c1 (single isomer, unassigned) [Example 5, 2-((1-(3,6-dimethyl-4-oxo-2-(2-azaspiro[3.5]nonan-2-yl)-3,4-dihydroquinazolin-8-yl)ethyl)amino)benzoic acid]
[1]
  EC50: 2 to 15 µM
[2]; [5]
  IC50: 1 to 5 µM
[3]
  EC50: > 15 µM
[4]; 6 hour
  IC50: > 15 µM

## Cc1cc2c(=O)n(C)c(N3CCN(CC(F)(F)F)CC3)nc2c(C(C)Nc2ccccc2C(=O)O)c1F (single isomer, unassigned) [Example 20, 2-((1-(7-fluoro-3,6-dimethyl-4-oxo-2-(4-(2,2,2-trifluoroethyl)piperazin-1-yl)-3,4-dihydroquinazolin-8-yl)ethyl)amino)benzoic acid]
[1]
  EC50: 0.5 to 2 µM
[2]; [5]
  IC50: 0.001 to 1 µM
[3]; Homo sapiens, SK-BR-3, 72 h
  EC50: > 15 µM
[4]; Homo sapiens, SK-BR-3, 6 h
  IC50: > 15 µM

## CC(Nc1ccc(F)cc1C(=O)O)c1cc(Cl)cc2c(=O)n(C)c(N3CCN(CC(F)(F)F)CC3)nc12 (single isomer, unassigned) [Example 25, 2-((1-(6-chloro-3-methyl-4-oxo-2-(4-(2,2,2-trifluoroethyl)piperazin-1-yl)-3,4-dihydroquinazolin-8-yl)ethyl)amino)-5-fluorobenzoic acid]
[1]
  EC50: 2 to 15 µM
[2]; [5]
  IC50: > 15 µM
[3]
  EC50: 2 to 15 µM
[4]; 6 hour
  IC50: > 15 µM

## Cc1cc2c(=O)n(C)c(N3CCN(CC(F)(F)F)CC3)nc2c(C(C)Nc2ccccc2C(=O)O)c1F (single isomer, unassigned) [Example 21, 2-((1-(7-fluoro-3,6-dimethyl-4-oxo-2-(4-(2,2,2-trifluoroethyl)piperazin-1-yl)-3,4-dihydroquinazolin-8-yl)ethyl)amino)benzoic acid]
[1]
  EC50: > 15 µM
[2]; [5]
  IC50: > 15 µM
[3]
  EC50: > 15 µM
[4]; 6 hour
  IC50: > 15 µM

## Cc1cc(C(C)Nc2ccc(Cl)cc2C(=O)O)c2nc(N3Cc4ccc(F)cc4C3)n(C)c(=O)c2c1 (single isomer, unassigned) [Example 14, 5-chloro-2-((1-(2-(5-fluoroisoindolin-2-yl)-3,6-dimethyl-4-oxo-3,4-dihydroquinazolin-8-yl)ethyl)amino)benzoic acid]
[1]
  EC50: 0.001 to 0.5 µM
[2]; [5]
  IC50: 1 to 5 µM
[3]
  EC50: 2 to 15 µM
[4]; 6 hour
  IC50: > 15 µM
